The source of these data is patent publication US9550763B2, “Heterocyclic ring and carbocyclic derivative” (Shionogi & Co., Ltd., priority 2012, dated 2017).

Usually IC50 stands for the concentration that inhibits the measured activity by half.

Common to all, as to format: cell-based
Assay [1] deals with T1, human P2X3 receptor (Homo sapiens (Human), UniProt P56373). Briefly: Evaluation of human P2X3 receptor inhibitory activity (Test Example 1-1, FDSS 3000, 96-well, 50 nM ATP). The following applies: human P2X3 receptor in C6BU-1 cells; Test Example 1-1 (compounds I-001 to I-300). The method in brief:
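C6BU-1 cells stably expressing human P2X3, loaded with 4 μM Fluo-3-AM (pH 7.5), preincubated 5 min with compound before 50 nM ATP challenge; fluorescence followed 4 min on FDSS 3000. IC50 derived from peak/baseline fluorescence ratio, no-compound as 0% and buffer-instead-of-ATP as 100% inhibition.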

The target in assay [2] is Rat P2X3 receptor (Rattus norvegicus (Rat), UniProt P49654). As to the kind of experiment: Evaluation of rat P2X3 receptor inhibitory activity in the presence of rat serum albumin (RSA) (Test Example 3-2). The conditions noted are these: rat P2X3 receptor in C6BU-1 cells. The protocol: Rat P2X3 receptor gene (GenBank accession number NM_031075) was expressed in C6BU-1 cell. The C6BU-1 cells were seeded in a 96-well microtiter plate at a concentration of 2500 cells/well and cultured in the medium (7.0% fetal bovine serum, 7.0% horse serum, and 1% antibiotic and antifungal in DMEM) for one day at 37° C. under 5% carbon dioxide atmosphere. The plasmid was transfected into the cells using transfection reagent FuGENEG (Roche). The transfected cells were cultured in the medium for one day at 37° C. under 5% carbon dioxide atmosphere. The medium was replaced with 4 μM Fluo-3-AM solution (pH7.5) containing 20 mM HEPES, […], 5.27 mM KCl, 0.9 mM MgCl2, 1.26 mM CaCl2, 5.6 mM D-glucose, 2.5 mM probenecid, 1% BSA, and 0.08% Pluronic F-127, and incubated at 37° C. under 5% dioxide carbon atmosphere for one hour. The plate was washed with washing buffer (20 mM HEPES, 137 mM NaCl, 5.27 mM KCl, 0.9 mM MgCl2, 1.26 mM CaCl2, 5.6 mM D-glucose, 2.5 mM probenecid, pH7.5), and each well was added with 40 μL of this buffer. The plate was placed in High-Throughput Screening System FDSS 3000 (Hamamatsu Photonics K.K.). Measurement of fluorescence intensity by FDSS 3000 was started, and 40 μL of DMSO solutions containing 1% RSA (final concentrations) and different concentrations of the test compound as prepared by dilution with dilution buffer (20 mM HEPES, 137 mM NaCl, 5.27 mM KCl, 0.9 mM MgCl2, 1.26 mM CaCl2, 5.6 mM D-glucose, 2.5 mM probenecid, 0.1% Pluronic F-127, pH7.5) were dispensed to each well through the built-in automatic dispenser. Five minutes after, 50 nM ATP solution (50 μL) prepared by dilution with the dilution buffer was dispensed through the built-in automatic dispenser, and the measurement of fluorescence intensity was continued for 4 min. For each well, the specific maximum fluorescence intensity was calculated as the ratio of the maximum fluorescence intensity after addition of the ATP solution to the fluorescence intensity at the starting of the measurement. The 50% inhibitory concentration (IC50) was calculated under the assumption that the specific maximum fluorescence intensity without test compound is 0% inhibition and that the specific maximum fluorescence intensity when the dilution buffer was added in place of ATP solution is 100% inhibition, to evaluate the inhibitory activity of the test compound. FDSS software (Hamamatsu Photonics K.K.) was used for calculation of the specific maximum fluorescence intensity. IC50 was calculated using Microsoft Excel (Microsoft Corporation) and XLfit (idbs Ltd.).
Chain of Rat P2X3 receptor (P49654 whole entry): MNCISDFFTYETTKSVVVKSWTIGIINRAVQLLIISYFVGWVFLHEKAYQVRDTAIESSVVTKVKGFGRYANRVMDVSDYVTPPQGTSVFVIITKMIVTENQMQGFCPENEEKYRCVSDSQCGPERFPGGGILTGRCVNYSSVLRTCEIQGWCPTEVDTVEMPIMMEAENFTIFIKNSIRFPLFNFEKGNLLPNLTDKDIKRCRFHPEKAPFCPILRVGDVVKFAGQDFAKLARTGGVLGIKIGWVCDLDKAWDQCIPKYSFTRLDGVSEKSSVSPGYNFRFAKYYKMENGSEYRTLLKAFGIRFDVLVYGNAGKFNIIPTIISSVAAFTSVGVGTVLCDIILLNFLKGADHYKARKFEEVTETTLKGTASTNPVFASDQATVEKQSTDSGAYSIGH

Assay [3] has as its target T1, human P2X3 receptor. As to the kind of experiment: Evaluation of human P2X3 receptor inhibitory activity (Test Example 1-2, FLIPR 384, 384-well, 150 nM ATP). The following applies: human P2X3 receptor in C6BU-1 cells; Test Example 1-2 (compounds I-301 to I-483); read-out: P2X3 IC50. In outline: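 Human P2X3 stably expressed in C6BU-1 cells, Fluo-3-AM loaded, read on FLIPR at pH 7.5 HEPES buffer. Compound added 5 min before 150 nM ATP; peak/baseline fluorescence over 4 min gave inhibition (buffer instead of ATP = 100%), from which IC50 was derived.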

T1 sequence (P56373 whole entry): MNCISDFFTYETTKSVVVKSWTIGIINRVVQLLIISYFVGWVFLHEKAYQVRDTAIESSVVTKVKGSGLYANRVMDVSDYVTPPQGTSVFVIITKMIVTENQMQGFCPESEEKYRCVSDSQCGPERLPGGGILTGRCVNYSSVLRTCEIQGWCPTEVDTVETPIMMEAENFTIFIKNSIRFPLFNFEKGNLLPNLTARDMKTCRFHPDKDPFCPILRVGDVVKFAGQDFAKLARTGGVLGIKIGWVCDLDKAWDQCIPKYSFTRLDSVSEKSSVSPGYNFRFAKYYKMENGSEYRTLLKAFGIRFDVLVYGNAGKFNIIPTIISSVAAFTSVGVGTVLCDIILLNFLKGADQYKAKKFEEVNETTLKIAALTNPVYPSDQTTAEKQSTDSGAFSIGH

Take `Cc1ccc(Oc2ccc(Nc3nc(=O)c(C(=O)NC4CCOCC4)cn3Cc3ccc(Cl)cc3)cc2)nn1` [Compound I-159]: the IC50 is 7 nM in assay [1] and 23 nM in assay [2].

In the case of `Cc1cc(/N=c2\[nH]cc(NC(=O)C3CCOCC3)c(=O)n2Cc2ccc(Cl)cc2)ccc1Oc1ncccc1F` [Compound I-162], the IC50 was 3 nM in assay [1] and 13 nM in assay [2].

For the compound `CCCn1c(=O)cc(Nc2ccc(Oc3cccc(C(=O)O)n3)cc2)n(Cc2ccc(Cl)cc2)c1=O` [Compound I-165], the IC50 in assay [1] came to 3 nM; in assay [2], 17 nM.

Take `O=c1c(NC(=O)[C@H]2C[C@H](O)C2)c[nH]/c(=N\c2ccc(Oc3ccc(F)cn3)cc2)n1Cc1ccc(Cl)cc1` [Compound I-215]: the figures for the IC50 in assay [1] and in assay [2] were 4 nM and 5 nM, respectively.

`N#Cc1cnc(Oc2ccc(Nc3nc(=O)c(C(=O)NC4CCOCC4)cn3Cc3ccc(Cl)cc3)cc2)cn1` [Compound I-230]: the IC50 in assay [1] amounted to 9 nM; in assay [2], 10 nM.

In the case of `Cc1cc(Oc2ccc(/N=c3\[nH]cc(NC(=O)C4CCOCC4)c(=O)n3Cc3ccc(Cl)cc3)cc2C)no1` [Compound I-304], the IC50 in assay [3] and in assay [2] was 12 nM throughout.

For `Cc1ccc(Oc2ccc(/N=c3\[nH]cc(NC(=O)[C@H]4C[C@H](O)C4)c(=O)n3Cc3ccc(Cl)cc3)cc2)nn1` [Compound I-308], the IC50 in assay [3] and in assay [2] was 5 nM throughout.

For `CCC(=O)Nc1c[nH]/c(=N\c2ccc(Oc3ccc(C(N)=O)nn3)cc2)n(Cc2ccc(Cl)cc2)c1=O` [Compound I-309], the IC50 in assay [3] stood at 9 nM; in assay [2], 22 nM.

For the compound `Cc1noc(-c2c[nH]/c(=N\c3ccc(Oc4cccc(C(=O)O)n4)cc3)n(Cc3ccc(Cl)cc3)c2=O)n1` [Compound I-313], the IC50 in assay [3] is 5 nM; in assay [2], 24 nM.

As to `Cc1nc(Nc2cc(=O)n([C@@H](C)[C@@H](C)C(=O)O)c(=O)n2Cc2ccc(Cl)cc2)ccc1Oc1ccc(F)nc1` [Compound I-339], the IC50 in assay [3] turned out to be 9 nM; in assay [2], 12 nM.

Consider `O=C(O)c1cc(Oc2ccc(/N=c3\[nH]cc(Nc4ccon4)c(=O)n3Cc3ccc(Cl)cc3)cc2)ccn1` [Compound I-354], for which the half-inhibitory concentration (IC50) in assay [3] is 7 nM; in assay [2], 14 nM.
